Data set [1] concerns α-glucosidase. Put plainly: Negative enzyme control experiment, α-glucosidase. The format is biochemical. As to conditions: 0.1 Unit, MES buffer pH 6.8, 37° C., 20 h. The procedure:
(§1) Compounds 1 and 2 were subjected to an α-glucosidase, α-fucosidase and α-galactosidase.
(§2) Negative enzyme control experiments. A solution of compound 1 or 2 (0.004 mmol) and α-glucosidase, α-galactosidase or α-L-fucosidase (0.1 Unit) in MES buffer (0.05 M; pH 6.8 for α-glucosidase, pH 6.5 for α-galactosidase or pH 5.5 for α-L-fucosidase; 1 ml) was incubated at 37° C. for 20 h, after which the reaction mixture was freezing-dried, and the solid residue was analyzed by ^1H NMR spectrometry and mass spectrometry.

Data set [2] is described as follows: Stability measurements in deuterated sodium acetate buffer by 1H NMR. The settings on record: 0.4 mM, sodium acetate buffer pH 4.0, 37° C., 6 days. Format: physicochemical. The procedure:
Stability measurements. A solution of compound 1 or 2 (0.4 mM) in deuterated sodium acetate buffer (100 mM; pH 4.0; 0.2 ml) in a NMR tube was incubated at 37° C. for 6 days. ^1H NMR spectra were recorded every day.

In data set [3] the test system is α-galactosidase. Put plainly: Negative enzyme control experiment, α-galactosidase. As to conditions: 0.1 Unit, MES buffer pH 6.5, 37° C., 20 h. The format is biochemical. The method, then: as §1, §2
Data set [4] has as its target T1, human lysosomal mannosidase (HLM) (Homo sapiens, UniProt O00754).
T1 sequence (O00754 50-1011): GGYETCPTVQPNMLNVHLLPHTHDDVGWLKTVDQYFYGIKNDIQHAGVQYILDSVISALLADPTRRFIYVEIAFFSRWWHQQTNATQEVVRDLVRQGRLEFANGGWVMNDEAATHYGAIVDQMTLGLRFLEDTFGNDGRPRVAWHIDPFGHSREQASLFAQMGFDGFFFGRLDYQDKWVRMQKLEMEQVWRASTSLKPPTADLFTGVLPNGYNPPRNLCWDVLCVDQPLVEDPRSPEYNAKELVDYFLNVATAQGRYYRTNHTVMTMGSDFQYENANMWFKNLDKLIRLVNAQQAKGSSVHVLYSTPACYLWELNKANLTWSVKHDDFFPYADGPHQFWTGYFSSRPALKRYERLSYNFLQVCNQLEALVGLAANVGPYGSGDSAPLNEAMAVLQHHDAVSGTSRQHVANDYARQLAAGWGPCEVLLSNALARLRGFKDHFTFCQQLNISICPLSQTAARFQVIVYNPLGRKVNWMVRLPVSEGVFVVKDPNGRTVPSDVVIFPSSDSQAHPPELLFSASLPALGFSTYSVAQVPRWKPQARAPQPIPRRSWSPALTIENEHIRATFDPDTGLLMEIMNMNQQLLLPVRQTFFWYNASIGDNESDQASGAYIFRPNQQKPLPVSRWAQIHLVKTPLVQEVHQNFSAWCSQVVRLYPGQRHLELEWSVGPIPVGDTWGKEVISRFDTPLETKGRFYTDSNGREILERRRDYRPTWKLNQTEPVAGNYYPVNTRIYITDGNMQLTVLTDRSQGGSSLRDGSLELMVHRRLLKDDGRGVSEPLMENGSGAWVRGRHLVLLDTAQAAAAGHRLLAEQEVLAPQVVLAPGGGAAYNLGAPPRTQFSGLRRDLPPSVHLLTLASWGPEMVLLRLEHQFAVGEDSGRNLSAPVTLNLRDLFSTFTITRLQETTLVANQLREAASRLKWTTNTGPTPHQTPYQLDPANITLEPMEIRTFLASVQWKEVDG
Put plainly: Enzymatic cleavage of prodrugs by human lysosomal mannosidase monitored by 1H NMR. Format: biochemical. The settings on record: HLM 20 mU, 80 nmol compound, sodium acetate buffer pH 5.6, 37° C. The method, then: HLM ([…]) was added to a solution of 2 (a) or 1 (b) ([…]) in a deuterated sodium acetate buffer (100 mM, pH, 5.6, 0.2 mL) and the enzymatic cleavage was monitored by ^1H NMR (600 MHz).
The enzymatic cleavage of 1 and 2 by human lysosomal mannosidase (HLM) was monitored by ^1H NMR (600 MHz) (Wilson et al., Org. Lett. 1999, 1, 443) Thus, HLM (20 mU) was added to a solution of 1 or 2 (80 nmol) dissolved in a deuterated sodium acetate buffer (100 mM, pH 5.6, 0.2 mL). The progress of the reaction was monitored by the integration of key signals of the starting material, the intermediate and final product. […] In this case, the released mannostatin A (5) inhibits HLM terminating further hydrolysis of 1. Mannostatin A is a potent inhibitor of retaining α-mannosidases (Ki=90 nM, HLM) (Li et al., Chem. Bio. Chem. 2004, 5, 1220) and thus the release of low concentrations of the active compound is sufficient to abolish enzyme activity.
Kinetic measurements. A solution of compound 1 or 2 (0.08 μmol) and human lysosomal mannosidase (HLM, 0.02 Unit) in deuterated sodium acetate buffer (0.1 M; pH 5.6; 0.2 ml) was incubated at 37° C., and ^1H NMR spectra (600 MHz) were recorded at different time intervals. Relevant signals were integrated to determine the rate of enzymatic hydrolysis, and the appearance of the intermediate and the final product.

Data set [5] relates to α-L-fucosidase. Put plainly: Negative enzyme control experiment, α-L-fucosidase. Format: biochemical. As to conditions: 0.1 Unit, MES buffer pH 5.5, 37° C., 20 h. The procedure: as §1, §2
Data set [6] can be described thus: Self-decomposition half-time of the intermediate released from prodrug 2 by Jack Bean mannosidase, followed by 1H NMR. Format: physicochemical. The settings on record: phosphate/citrate buffer. The method, then:
Next, the pH dependence of the self-fragmentation of intermediates 3 and 4 was investigated. It is well known that different organelles have different pH values. […] Golgi mannosidase II has been identified as a target for anti-metastatic therapy (Goss et al., Clin. Cancer Res. 1995, 1, 935; Elbein, FASEB J. 1991, 5, 3055), whereas inhibition of lysosomal mannosidase leads to the phenotype of lysosomal storage disease. […] Thus, compound 2 (0.4 mM) in sodium acetate buffers of different pH was treated with a large quantity (7 Units/mL) of Jack Bean α-mannosidase (JBM) to completely convert the prodrug into intermediate 4. Subsequently, the decomposition of 4 was monitored by ^1H NMR by integration of key signals of the intermediate and final product. […] The results of these experiments indicate that in a compartment such as the medial Golgi, which has a pH close to neutral, the decomposition of the intermediate will occur in minutes, which is probably fast enough for rebinding of the inhibitor.
Self-decomposition half-time measurements. A solution of compound 2 (0.08 μmol) and Jack Bean mannosidase (JBM) (1.4 Units) in deuterated 0.2 M phosphate/0.1 M citrate buffer (pH=4.0, 4.5, 5.0, 5.5, 6.0 or 6.5; 0.2 ml) was incubated at 37° C. or 25° C., and ^1H NMR spectra (600 MHz) were recorded at different time intervals. Relevant signals were integrated to determine the appearance of the intermediate 4 and the final product 6, and the decomposition rate.

Data set [7] deals with T1, human lysosomal mannosidase (HLM). Put plainly: Inhibition of human lysosomal mannosidase. The format is biochemical.
Data set [8] relates to MDAY-D2 lymphoma cells. Put plainly: Inhibition of cell surface polylactosamine biosynthesis (L-PHA lectin blot). The settings on record: MDAY-D2 cells cultured for two days. Format: cell-based. The procedure: MDAY-D2 cells were cultured for 2 days in the absence (control) or presence of different concentrations of compounds 14 (a) or 15 (b). Cellular proteins (10 μg) were subjected to SDS-PAGE and polylactosamine was visualized using a fluorescein labeled L-PHA lectin (upper part figure). Fluorescence bands were scanned by laser beam densitometry, and the relative intensity depicted (lower part figure).
It is known that the metastatic MDAY-D2 lymphoma cell line over-expresses the enzyme N-acetyl glucosaminyltransferase V (GnTV) (Goss et al., Clin. Cancer Res. 1995, 1, 935). […] Subsequently, the presence of polylactosamine linked to proteins was determined by analyzing cell lysates by Western blotting using a fluorescein labeled PHA lectin (Dennis et al., Cancer Res. 1990, 50, 1867).
Cell maintenance. […] New batches of frozen cell stock were grown up every 2 months and growth morphology was evaluated.
Inhibition of cell surface polylactosamine biosynthesis. […] Protein concentrations were determined using the BCA reagent (Pierce) and cellular proteins (10 μg) were separated by SDS-PAGE using 4-20% linear gradient polyacrylamide gels (Bio-Rad). […] Fluorescence bands were imaged at 495 nm (absorbance)/520 nm (emission) and the intensity scanned by laser beam densitometry (Typhoon 9410 Imager; Amersham Biosciences).

Data set [9] addresses T1, human lysosomal mannosidase (HLM). The settings on record: Li et al., Chem. Bio. Chem. 2004; cited from earlier work.

Consider `O=C(NC1C(O)C(O)C(O)C1O)OCc1ccc(O[C@H]2O[C@H](CO)[C@@H](O)[C@H](O)[C@@H]2O)cc1` (stereo partly drawn) [Compound 2, (1,4/2,3,5)-5-[4-(α-D-mannopyranosyloxy)-benzyloxycarbonyl]amino-1,2,3,4-cyclopentanetetrol], for which the “decomposition by α-glucosidase” value in data set [1] was “No decomposition of product was observed”. The decomposition in buffer entry in data set [2] was “No decomposition of product was observed”. In addition, in data set [3], the “decomposition by α-galactosidase” value is given as “No decomposition of product was observed”. In addition, the “enzymatic hydrolysis of the prodrug by HLM” value in [4] was “progressed to completion”. The “decomposition by α-L-fucosidase” value in [5] was “No decomposition of product was observed”. Also, the half-life of self-fragmentation is 46.67 h in data set [6] (pH 4.0, 25° C.); 8 h in data set [6] (pH 4.0, 37° C.); 4.5 h in [6] (pH 4.5, 37° C.); 1.67 h in [6] (pH 5.0, 37° C.); 0.75 h in data set [6] (pH 5.5, 37° C.); 0.267 h in [6] (pH 6.0, 37° C.). The half-life of self-fragmentation was 0.75 h in data set [6] (pH 6.5, 25° C.) and 0.15 h in data set [6] (pH 6.5, 37° C.).

With `NC1C(O)C(O)C(O)C1O` (centres unmarked) [Compound 6, aminocyclopentitetrol], the “inhibition of HLM” value in data set [7] is “not an inhibitor of HLM”.

Consider `CSC1C(NC(=O)OCc2ccc(O[C@H]3O[C@H](COC(C)=O)[C@@H](OC(C)=O)[C@H](OC(C)=O)[C@@H]3OC(C)=O)cc2)C(OC(C)=O)C(OC(C)=O)C1OC(C)=O` (stereo partly drawn) [Compound 14, 1D-(1,2,3,4/5)-4-[4-(2,3,4,6-tetra-O-acetyl-α-D-mannopyranosyloxy)-benzyloxycarbonyl]amino-1,2,3-tri-O-acetyl-5-(methylsulfanyl)cyclopentane-1,2,3-triol], for which, in data set [8] (1 μM), the “reduction in fluorescein labeling (polylactosamine)” value is on record as 50%.

For the compound `CC(=O)OC[C@H]1O[C@H](Oc2ccc(COC(=O)NC3C(OC(C)=O)C(OC(C)=O)C(OC(C)=O)C3OC(C)=O)cc2)[C@@H](OC(C)=O)[C@@H](OC(C)=O)[C@@H]1OC(C)=O` (stereo partly drawn) [Compound 15, (1,4/2,3,5)-5-[4-(2,3,4,6-tetra-O-acetyl-α-D-mannopyranosyloxy)-benzyloxycarbonyl]amino-1,2,3,4-tetra-O-acetyl-1,2,3,4-cyclopentanetetrol], the “inhibitory activity on polylactosamine formation” value in data set [8] (0.1-100 μM) is given as “did not display any inhibitory activity”.

As usually defined, the Ki is a measure of affinity in units of concentration, obtained from inhibition or displacement. In the case of `CS[C@@H]1[C@@H](N)[C@@H](O)[C@@H](O)[C@H]1O` [Mannostatin A, mannostatin A], the inhibition constant Ki in [9] is 90 nM.

The values are drawn from patent publication US20100160207A1, “Feedback Prodrug” (University of Georgia Research Foundation, Inc., priority 2006, published 2010).
